In patent US20240368655A1, “CLICK HANDLE-MODIFIED DEOXY-FLUOROARABINO NUCLEIC ACID AS A SYNTHETIC GENETIC POLYMER CAPABLE OF POST-POLYMERIZATION FUNCTIONALIZATION” (THE TRUSTEES OF BOSTON COLLEGE, priority 2023, published 2024):
“Also recorded” adds a separate entry of the source.

Target: T1, Thermococcus gorgonarius (Tgo) DNA polymerase (Thermococcus gorgonarius, UniProt P56689)
T1 construct: made in house
T1 sequence (P56689 1-773): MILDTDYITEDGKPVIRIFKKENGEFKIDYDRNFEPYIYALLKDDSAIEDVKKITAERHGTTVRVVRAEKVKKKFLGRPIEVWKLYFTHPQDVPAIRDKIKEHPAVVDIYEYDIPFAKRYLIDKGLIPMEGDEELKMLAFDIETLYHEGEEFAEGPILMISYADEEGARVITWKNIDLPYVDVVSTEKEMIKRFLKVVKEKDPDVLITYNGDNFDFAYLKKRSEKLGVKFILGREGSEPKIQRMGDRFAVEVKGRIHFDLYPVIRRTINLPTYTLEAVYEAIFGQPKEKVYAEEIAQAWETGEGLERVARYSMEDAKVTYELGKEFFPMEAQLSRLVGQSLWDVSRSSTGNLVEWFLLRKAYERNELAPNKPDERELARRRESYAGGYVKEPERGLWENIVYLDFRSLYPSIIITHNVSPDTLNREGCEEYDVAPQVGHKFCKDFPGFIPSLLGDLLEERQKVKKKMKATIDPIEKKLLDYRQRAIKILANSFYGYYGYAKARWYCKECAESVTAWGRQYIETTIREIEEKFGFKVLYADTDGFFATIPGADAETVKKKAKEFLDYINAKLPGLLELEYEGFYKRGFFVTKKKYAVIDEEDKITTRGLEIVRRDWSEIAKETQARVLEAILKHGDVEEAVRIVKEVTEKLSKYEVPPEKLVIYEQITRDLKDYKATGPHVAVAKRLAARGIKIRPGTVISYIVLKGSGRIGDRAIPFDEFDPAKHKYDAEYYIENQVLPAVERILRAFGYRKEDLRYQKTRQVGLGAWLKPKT
Assay: DNA-templated primer extension by Tgo DNA polymerase
Assay type: biochemical
Details: with FANA ATP, CTP, GTP, DNA primer-template complex
Description: It was hypothesized that Thermococcus gorgonarius (Tgo) DNA polymerase could tolerate the 5-1,7-octadiyne modification on uracil and that the enzyme could incorporate FANA nucleotides. To investigate the hypothesis, a primer extension experiment was performed, in which a DNA primer-template complex was enzymatically extended by Tgo DNA polymerase using commercially available FANA nucleotide triphosphates (A, C, and G) as well as C8-alkyne-FANA UTP 11. The DNA template was prepared to contain a 40-nucleotide (nt) random region to avoid sequence bias, as well as a 24-nt poly-AAC tail at the 3′-end, which would not be transcribed, to provide a mobility difference between extension product (76 nt) and DNA template (100 nt) in denaturing polyacrylamide gel electrophoresis (PAGE). The DNA primer was labeled by a 5′-Cy5 fluorophore to allow easy detection of the extended product. A control experiment in which all FANA nucleotide triphosphates comprising natural bases (A, C, G and T) was also conducted to determine the impact of the 5-1,7-octadiyne modification of uracil on the primer extension reactivity. Tgo DNA polymerase was added in various amounts to confirm that the generation of the extended products was mediated by the Tgo DNA polymerase in a dose-dependent fashion. […]

Substance: 5-octa-1,7-diynyluracil 2′-deoxy-2′-fluoroarabino triphosphate [compound 11]
- recognition and incorporation as substrate in primer extension: produced the full-length products in a polymerase dose-dependent fashion
- recognition and incorporation as substrate in primer extension (listed as C8-alkyne-FANA UTP): successfully served as a substrate; also recorded: quantitatively incorporated
